Experimental data from US20090170812A1, “Transcription factor modulating compounds and methods of use thereof” (priority 2006, published 2009).

Tests used:
[1] = system: Yersinia pseudotuberculosis
ExsA = biological target: T1, ExsA (Pseudomonas aeruginosa, UniProt P26993); assay: In vitro activity of Mar inhibitors against ExsA: cell-free DNA binding assay; conditions: purified ExsA from P. aeruginosa, inhibition of DNA binding in vitro
T1 construct: made in house
T1 sequence (P26993 1-278): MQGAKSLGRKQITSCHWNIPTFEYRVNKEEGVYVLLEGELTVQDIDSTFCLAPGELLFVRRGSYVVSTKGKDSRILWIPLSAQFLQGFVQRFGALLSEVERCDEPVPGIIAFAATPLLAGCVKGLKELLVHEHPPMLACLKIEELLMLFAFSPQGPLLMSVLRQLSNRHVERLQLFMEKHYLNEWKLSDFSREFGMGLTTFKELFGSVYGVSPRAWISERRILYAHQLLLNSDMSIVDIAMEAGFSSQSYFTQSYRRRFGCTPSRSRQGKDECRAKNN

P. aeruginosa = assay: Whole cell assay: cytotoxicity of P. aeruginosa toward J774 cells (CytoTox 96, LDH release); conditions: percent cytotoxicity of treated P. aeruginosa toward J774 cells
LcrF (VirF) = LcrF (VirF) (Yersinia pestis, UniProt P28808); assay: biochemical; type: binding, Y. pseudotuberculosis
Sequence of LcrF (VirF) (P28808 whole entry, looked up): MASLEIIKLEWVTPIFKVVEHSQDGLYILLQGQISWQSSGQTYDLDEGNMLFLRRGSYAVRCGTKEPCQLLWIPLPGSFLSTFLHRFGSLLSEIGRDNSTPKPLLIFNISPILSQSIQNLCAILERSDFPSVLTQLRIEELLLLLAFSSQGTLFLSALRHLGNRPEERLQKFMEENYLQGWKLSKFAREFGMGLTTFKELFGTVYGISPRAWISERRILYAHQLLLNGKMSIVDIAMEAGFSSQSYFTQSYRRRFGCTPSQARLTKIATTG

Row | Structure (SMILES) | Cytotoxicity at 50 μg/mL Yersinia [1] | EC50 (ExsA) | Cytotoxicity at 50 μg/mL Pseudomonas (P. aeruginosa) | EC50 (LcrF (VirF))
1 | COc1ccc(/C=C/C(=O)Nc2ccc(-c3nc4ccc([N+](=O)[O-])cc4n3O)cc2)c(OC)c1 [J] | ** (key: *: percent cytotoxicity above 75% at 50 μg/mL; **: cytotoxicities below 75% at 50 μg/mL) | < 10 µM | * (percent cytotoxicities above 75% at 50 mg/mL) | > 25.1 µM
2 | N#Cc1ccc2nc(-c3ccc(NC(=O)c4ccc(F)cc4)cc3)n(O)c2c1 [K] | * (key: *: percent cytotoxicity above 75% at 50 μg/mL; **: cytotoxicities below 75% at 50 μg/mL) | 10.1 to 25 µM | * (percent cytotoxicities above 75% at 50 mg/mL) | > 25.1 µM
3 | O=C(Nc1ccc(-c2nc3ccc([N+](=O)[O-])cc3n2O)cc1)c1ccc(F)c(F)c1 [P] | * (key: *: percent cytotoxicity above 75% at 50 μg/mL; **: cytotoxicities below 75% at 50 μg/mL) | 10.1 to 25 µM | * (percent cytotoxicities above 75% at 50 mg/mL) | 10.1 to 25 µM
4 | O=C(Nc1ccc(-c2nc3ccc([N+](=O)[O-])cc3n2O)cc1)c1ccc(-c2cncnc2)cc1 [R] | ** (key: *: percent cytotoxicity above 75% at 50 μg/mL; **: cytotoxicities below 75% at 50 μg/mL) | 10.1 to 25 µM | * (percent cytotoxicities above 75% at 50 mg/mL) | > 25.1 µM
5 | Cc1cc(C(=O)Nc2ccc(-c3nc4ccc([N+](=O)[O-])cc4n3O)cc2)ccc1F [S] | * (key: *: percent cytotoxicity above 75% at 50 μg/mL; **: cytotoxicities below 75% at 50 μg/mL) | 10.1 to 25 µM | * (percent cytotoxicities above 75% at 50 mg/mL) | 10.1 to 25 µM
6 | COc1cc(F)ccc1C(=O)Nc1ccc(-c2nc3ccc([N+](=O)[O-])cc3n2O)cc1 [T] | ** (key: *: percent cytotoxicity above 75% at 50 μg/mL; **: cytotoxicities below 75% at 50 μg/mL) | < 10 µM | * (percent cytotoxicities above 75% at 50 mg/mL) | < 10 µM
7 | O=C(Nc1ccc(-c2nc3ncc([N+](=O)[O-])cc3n2O)cc1)c1ccc(F)cc1 [X] | * (key: *: percent cytotoxicity above 75% at 50 μg/mL; **: cytotoxicities below 75% at 50 μg/mL) | 10.1 to 25 µM | * (percent cytotoxicities above 75% at 50 mg/mL) | 10.1 to 25 µM
8 | CC(=O)c1ccc(C(=O)Nc2ccc(-c3nc4ncc([N+](=O)[O-])cc4n3O)cc2)cc1 [Y] | * (key: *: percent cytotoxicity above 75% at 50 μg/mL; **: cytotoxicities below 75% at 50 μg/mL) | < 10 µM | * (percent cytotoxicities above 75% at 50 mg/mL) | 10.1 to 25 µM
